Common to all, as to test: Cross resistance to bleaching herbicides, in vitro PDS inhibition, non-His-tagged (Table 2)
For experiment [1], the system named is hydrilla PDS Arg^304 → Histidine. It counts as biochemical, Hydrilla verticillata. The settings on record: Histidine at 304 relative to Arginine; Table 2. How it is done: (§1) The expression constructs in Table 2 were derived from an original clone of the susceptible PDS gene from Hydrilla and then the Arg^304 was mutated to the listed amino acid. Expression was under the control of the lac promoter but in frame with the initiation codon of the LacZalpha-ccdB gene in the pCR4-TOPO vector (Invitrogen Inc., CA, Cat. #K4575-01).
(§2) All mutagenesis was performed, unless stated otherwise, using the TOPO-vector containing the wildtype (H4) PDS-sequence, which was extracted from an overnight culture with the Qiagen Plasmid Prep Kit as described above. The amount of the extracted plasmid was diluted to 10 ng/μl and used as template in a mutagenesis-procedure using the QuikChange Site-directed Mutagenesis Kit (Stratagene, Calif., #200518). The design of the mutagenesis-primers was conducted according to the manufacturers protocol to enable the specific change of Arg^304-codon to code for the desired amino acid. Primers (purchased from MWG-Biotech) and their introduced amino acid change are listed below with the changed codon underlined:
(§3) The reactions were performed according to the manufacturers protocol. Reactions were set up in MicroAmp-tubes on ice with 38 μl ddH2O, 5 μl 10× reaction buffer, 2 μl plasmid (10 ng/μl), 1.25 μl forward-mutagenesis primer (100 ng/μl), 1.25 μl of reverse mutagenesis primer (100 ng/μl), 1 μl dNTP-mix and 1 μl PfuTurboDNA polymerase (2.5 U/μl). The reactions were placed in a PE 9700 thermal cycler and heated to 95° C. for 30 sec followed by 12 rounds at 95° C. for 30 sec, 55° C. for 1 min and 68° C. for 12 min. The PCR was followed by a DpnI-digestion and transformation in XL1-Blue supercompetent cells as described in the manual. 4-6 resulting colonies were grown overnight in LB-medium with kanamycin and plasmid DNA was isolated as described above. The plasmid was used as template for sequencing with M13 and internal PDS-primers as described above on a LiCOR-system. Sequences were assembled and analyzed using Seqman. Introduced mutations were identified and plasmids carrying the desired mutation(s) were transferred into competent TOP10-cells, using the transformation protocol from the TOPO TA Cloning Kit. Resulting colonies were grown overnight in Wu-broth with kanamycin, aliquoted and stored at −80° C. until further use. 1 ml of Wu-cultures was used to start 1-L LB-cultures with kanamycin as described before, to express active PDS-enzyme for testing as described.
(§4) Phytoene desaturase activity and its inhibition by herbicides was determined using an in vitro system using components derived from the in vivo production of phytoene and phytoene desaturase proteins. All mutations described in Examples 3 and 4 were tested. […] The clones were used for the heterologous expression of Hydrilla-PDS-enzyme. In particular, bacterial cultures were grown from single colonies overnight in Wu-broth (6.27 g/L K2HPO4, 1.8 g/L KH2PO4, 0.5 g/L Na-citrate, 0.9 g/L (NH4)2SO4, 10 g/L tryptone, 5 g/L yeast extract, 10 g/L NaCl, 44 ml/L glycerol, 0.1 mM MgSO4, pH 7.2) with kanamycin. 1-mL was aliquoted in centrifuge tube and stored at −80° C. For expression, 1 L LB-medium with kanamycin was inoculated with 1-mL Wu-culture and grown for 24 h at 37° C. to stationary phase with shaking at 200 rpm. The cells were collected by centrifugation at 2000×g. All of the following steps were done at 4° C. unless otherwise noted. Active soluble PDS enzyme was extracted by lysing the transformed E. coli cells using a French Press at 20,000 psi in assay buffer consisting of 100 mM Tris-HCl, pH 7.2, 10 mM magnesium-chloride, 0.1 mM NADP, 0.1 mM FAD, 10 mM cysteine, 5 mM DTT, 1 mM aminocaproic acid, and 1 μg/ml leupeptin. The soluble fraction containing PDS activity was obtained by centrifugation for 10 min at 1200×g. After 24 h they were centrifuged down and used in PDS enzyme activity assays as described below.

Experiment [2] has as its system hydrilla PDS Arg^304 → Serine. It counts as biochemical, Hydrilla verticillata. The settings on record: Serine at 304 relative to Arginine; Table 2. How it is done: as §1, §2, §3, §4
Experiment [3] concerns the target hydrilla PDS Arg^304 → Cysteine (Hydrilla verticillata, UniProt Q66PY0, R304C). It counts as biochemical. The settings on record: Cysteine at 304; construct in frame with LacZalpha-ccdB, non-His-tagged; read-out: I50. How it is done:
as §1, §2, §3, §4

Experiment [4] concerns the target hydrilla PDS position 304 Arginine (wildtype) (Hydrilla verticillata, UniProt Q66PY0). It counts as biochemical. The settings on record: for R/S: Arginine at 304 (reference), Table 2; for IC50: Arginine at 304, construct in frame with LacZalpha-ccdB, non-His-tagged, read-out: I50. How it is done:
as §1, §2, §3, §4

The test system of experiment [5] is hydrilla PDS Arg^304 → Cysteine. It counts as biochemical, Hydrilla verticillata. The note with it: Cysteine at 304 relative to Arginine; Table 2. How it is done:
as §1, §2, §3, §4

The target in experiment [6] is hydrilla PDS Arg^304 → Histidine (Hydrilla verticillata, UniProt Q66PY0, R304H). It counts as biochemical. The note with it: Histidine at 304; construct in frame with LacZalpha-ccdB, non-His-tagged; read-out: I50. The protocol: as §1, §2, §3, §4
Sequence of hydrilla PDS Arg^304 → Histidine (Hydrilla verticillata, UniProt Q66PY0, R304H) (Q66PY0 1-580 R304H): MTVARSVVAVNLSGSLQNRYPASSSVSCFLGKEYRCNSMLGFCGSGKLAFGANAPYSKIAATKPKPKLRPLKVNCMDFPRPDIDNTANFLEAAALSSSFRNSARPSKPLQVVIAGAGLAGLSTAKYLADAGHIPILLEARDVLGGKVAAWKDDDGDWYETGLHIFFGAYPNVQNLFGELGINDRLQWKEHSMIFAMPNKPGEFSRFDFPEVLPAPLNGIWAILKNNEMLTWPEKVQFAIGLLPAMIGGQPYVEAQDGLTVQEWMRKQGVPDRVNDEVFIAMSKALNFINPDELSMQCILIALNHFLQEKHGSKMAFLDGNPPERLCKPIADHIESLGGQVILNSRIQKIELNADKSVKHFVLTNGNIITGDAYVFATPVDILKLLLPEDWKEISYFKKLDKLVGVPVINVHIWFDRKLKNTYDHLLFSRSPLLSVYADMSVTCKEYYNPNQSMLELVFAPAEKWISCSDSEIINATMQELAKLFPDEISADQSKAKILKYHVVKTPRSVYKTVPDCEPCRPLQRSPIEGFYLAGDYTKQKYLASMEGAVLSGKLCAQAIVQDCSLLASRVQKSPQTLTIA

Sequence of hydrilla PDS Arg^304 → Cysteine (Hydrilla verticillata, UniProt Q66PY0, R304C) (Q66PY0 1-580 R304C): as the sequence (Q66PY0 1-580 R304H) above, with H304C counted along it
Sequence of hydrilla PDS position 304 Arginine (wildtype) (Q66PY0 1-580): as the sequence (Q66PY0 1-580 R304H) above, with H304R counted along it

On to `CCC(Oc1ccc(F)c(C(F)(F)F)c1)C(=O)NCc1ccccc1` (centres unmarked) [Beflubutamid], for which the R/S in experiment [1] stood at 0.7; in experiment [2], 0.6; in experiment [4], 1; in experiment [5], 0.8. Also, the IC50 in experiment [3] was 3.5 µM; in experiment [4] it was 4.3 µM; in experiment [6] it was 3 µM.
In the case of `O=C(Nc1ccc(F)cc1F)c1cccnc1Oc1cccc(C(F)(F)F)c1` [Diflufenican], the R/S in experiment [1] came to 0.4; in experiment [2], 0.2; in experiment [4] it was 1; in experiment [5], 0.4. The results for the IC50 in experiment [3], in experiment [4] and in experiment [6] were 2.1 µM, 5.8 µM and 2 µM, respectively.
For the molecule `O=C1C(Cl)C(CCl)CN1c1cccc(C(F)(F)F)c1` (centres unmarked) [Fluorochloridone], the R/S in experiment [1] amounted to 1.1; in experiment [2] it was 1.9; in experiment [4] it was 1; in experiment [5] it was 3.6. The IC50 in experiment [3] was determined as 44.3 µM; in experiment [4], 12.2 µM; in experiment [6] it was 14 µM.
Consider `CNC1=C(c2cccc(C(F)(F)F)c2)C(=O)C(c2ccccc2)O1` (centres unmarked) [Flurtamone], for which the R/S came to 1.2 in experiment [1], 2.1 in experiment [2], 1 in experiment [4] and 1.9 in experiment [5]. The IC50 in experiment [3] was found to be 5.3 µM; in experiment [4] it was 2.8 µM; in experiment [6], 3.3 µM.
Take `CNc1cnn(-c2cccc(C(F)(F)F)c2)c(=O)c1Cl` [Norflurazon]: the R/S is on record as 1.6 in experiment [1], 17.7 in experiment [2] and 28.8 in experiment [5]. In addition, the IC50 is 89.4 µM in experiment [3], 3.1 µM in experiment [4] and 5 µM in experiment [6].
Take `O=C(Nc1ccc(F)cc1)c1cccc(Oc2cccc(C(F)(F)F)c2)n1` [Piconilafen, Picolinafen]: the figures for the R/S in experiment [1], in experiment [2] and in experiment [5] were 0.5, 0.4 and 0.4, respectively. Further, the IC50 in experiment [3] turned out to be 2.4 µM; in experiment [4], 5.6 µM; in experiment [6], 3 µM.
In the case of Fluridone, the R/S in experiment [1] stood at 2.8; in experiment [2], 5.5; in experiment [4], 1; in experiment [5], 3.2.

These data come from patent US20110098180A1, “Herbicide-Resistant Plants, And Polynucleotides And Methods For Providing Same” (United States Department of Agriculture, priority 2002, published 2011).
